Test results as given in patent US20110039793A1, “Application of ginsenoside Rb1 in preparing medicaments for treating dilated cardiomyopathy” (priority 2008, published 2011).

Columns and labels:
[1] = test system: cTnT^R141W transgenic dilated cardiomyopathy mice model; assay: Cardiac microstructure, HE and Masson staining, light microscope; format: in vivo; settings: long-term administration, vs model group
Description: Effects on the cardiac microstructure of the mice model after a long-term administration of ginsenoside Rb1 (HE and Masson staining)
1) Fix the heart and treated in a standard pathological procedure.
3) Composite staining solution for 5 min;
4) Slightly washed by 0.2% acetic acid solution;
5) 5% phosphotungstic acid for 5-10 min;
6) Immersion cleaning twice by 0.2% acetic acid solution;
7) Brilliant green staining solution for 5 min, immersion cleaning twice by 0.2% acetic acid solution;
8) Ethanol dehydration, xylene transparent and sealed with neutral gum;
9) Observed under light microscope, collagen fibers show green, muscle fibers show red and red blood cells show nacarat.

[2] = test system: cTnT^R141W transgenic dilated cardiomyopathy mice model; assay: M-mode echocardiography, cardiac function and morphous, once a month; format: in vivo; parameters: CO (Cardiac Output) / LVAW; d (left ventricular anterior wall thickness, end of diastole) / LV Mass (AW) (weight of the left ventricular) / Diameter; d (inner diameter of the left ventricular, end of diastole) / Volume; d (volume of the left ventricular, end of diastole) / SV (Stroke Volume): unit not given here; settings: for CO (Cardiac Output) / Diameter; d (inner diameter of the left ventricular, end of diastole) / Diameter; s (inner diameter of the left ventricular, end of systole) / EF (Ejection Fraction) / FS (Fractional Shortening) / LV Mass (AW) (weight of the left ventricular) / LVAW; d (left ventricular anterior wall thickness, end of diastole) / LVAW; s (left ventricular anterior wall thickness, end of systole) / LVPW; d (left ventricular posterior wall thickness, end of diastole) / LVPW; s (left ventricular posterior wall thickness, end of systole) / SV (Stroke Volume) / Volume; d (volume of the left ventricular, end of diastole) / Volume; s (volume of the left ventricular, end of systole): 75 mg/kg in drinking water
Description: The positive mice at 1.5 months old are distributed by weight and cardiac function uniformly into the model group and the ginsenoside Rb1 administration group according to the echocardiography result, and each group comprises twelve mice. Ginsenoside Rb1, 75 mg/kg (State Yao zhun Zi, Yun Nan Tean Na Pharmaceutical Co., Ltd) is put into animal drinking water, and continuously administered for seven months.
Echocardiography detection is performed once a month. Mice were anesthetized with tribromoethanol, scanned by small animal ultrasonic apparatus (Vevo 770 small animal ultrasonic detection system, Canada), with 30 MHz probe, M-mode echocardiography were analyzed: Body weight (BW), LVPW, d (the thickness of the left ventricular posterior wall at the end of the diastole), LVPW, s (the thickness of the left ventricular posterior wall at the end of the systole), LVAW, d (the thickness of the left ventricular anterior wall at the end of the diastole), LVAW, s (the thickness of the left ventricular anterior wall at the end of the systole), LV Mass (the weight of the left ventricular), Diameter, s (the inner diameter of the left ventricular at the end of the systole), Diameter, d (the inner diameter of the left ventricular at the end of the diastole), Volume, s (the volume of the left ventricular at the end of the systole), Volume, d (the volume of the left ventricular at the end of the diastole), SV (Stroke Volume), EF (Ejection Fraction), FS (Fractional Shortening) and CO (Cardiac Output).

[3] = long-term administration, echocardiography

## CC(C)=CCC[C@](C)(O[C@@H]1O[C@H](CO[C@@H]2O[C@H](CO)[C@@H](O)[C@H](O)[C@H]2O)[C@@H](O)[C@H](O)[C@H]1O)[C@H]1CC[C@]2(C)[C@@H]1[C@H](O)C[C@@H]1[C@@]3(C)CC[C@H](O[C@@H]4O[C@H](CO)[C@@H](O)[C@H](O)[C@H]4O[C@@H]4O[C@H](CO)[C@@H](O)[C@H](O)[C@H]4O)C(C)(C)[C@@H]3CC[C@]12C [Rb1, ginsenoside Rb1]
[1]; Masson staining
  proliferation of interstitial collagen: significantly decreased
[1]; light microscope
  hypertrophy and disordered arrangement of the myocytes: improved
[2]; 0 month of administration
  CO (Cardiac Output): 19.59 ± 2.99
  Diameter; d (inner diameter of the left ventricular, end of diastole): 4.02 ± 0.32
  Diameter; s (inner diameter of the left ventricular, end of systole): 2.84 ± 0.41
  EF (Ejection Fraction): 57.05 ± 7.87
  FS (Fractional Shortening): 29.77 ± 5.07
  LV Mass (AW) (weight of the left ventricular): 92.06 ± 17.12
  LVAW; d (left ventricular anterior wall thickness, end of diastole): 0.67 ± 0.06
  LVAW; s (left ventricular anterior wall thickness, end of systole): 0.99 ± 0.12
  LVPW; d (left ventricular posterior wall thickness, end of diastole): 0.67 ± 0.07
  LVPW; s (left ventricular posterior wall thickness, end of systole): 0.85 ± 0.06
  SV (Stroke Volume): 40.00 ± 4.42
  Volume; d (volume of the left ventricular, end of diastole): 71.50 ± 13.77
  Volume; s (volume of the left ventricular, end of systole): 31.51 ± 11.53
[2]; 1 month of administration
  CO (Cardiac Output): 22.14 ± 2.64
  Diameter; d (inner diameter of the left ventricular, end of diastole): 4.33 ± 0.38
  Diameter; s (inner diameter of the left ventricular, end of systole): 3.01 ± 0.46
  EF (Ejection Fraction): 58.32 ± 7.31
  FS (Fractional Shortening): 30.78 ± 4.73
  LV Mass (AW) (weight of the left ventricular): 120.38 ± 13.83
  LVAW; d (left ventricular anterior wall thickness, end of diastole): 0.84 ± 0.12
  LVAW; s (left ventricular anterior wall thickness, end of systole): 1.21 ± 0.13
  LVPW; d (left ventricular posterior wall thickness, end of diastole): 0.67 ± 0.06
  LVPW; s (left ventricular posterior wall thickness, end of systole): 0.95 ± 0.11
  SV (Stroke Volume): 48.69 ± 5.08
  Volume; d (volume of the left ventricular, end of diastole): 85.37 ± 17.55
  Volume; s (volume of the left ventricular, end of systole): 36.68 ± 13.77
[2]; 2 month of administration
  CO (Cardiac Output): 21.89 ± 1.78
  Diameter; d (inner diameter of the left ventricular, end of diastole): 4.31 ± 0.27
  Diameter; s (inner diameter of the left ventricular, end of systole): 3.15 ± 0.39
  EF (Ejection Fraction): 52.93 ± 7.59
  FS (Fractional Shortening): 27.23 ± 5.02
  LV Mass (AW) (weight of the left ventricular): 111.52 ± 7.92
  LVAW; d (left ventricular anterior wall thickness, end of diastole): 0.78 ± 0.05
  LVAW; s (left ventricular anterior wall thickness, end of systole): 1.13 ± 0.14
  LVPW; d (left ventricular posterior wall thickness, end of diastole): 0.69 ± 0.08
  LVPW; s (left ventricular posterior wall thickness, end of systole): 0.88 ± 0.12
  SV (Stroke Volume): 43.68 ± 2.20
  Volume; d (volume of the left ventricular, end of diastole): 83.96 ± 12.12
  Volume; s (volume of the left ventricular, end of systole): 40.29 ± 11.15
[2]; 3 month of administration
  CO (Cardiac Output): 22.72 ± 3.18
  Diameter; d (inner diameter of the left ventricular, end of diastole): 4.61 ± 0.35
  Diameter; s (inner diameter of the left ventricular, end of systole): 3.47 ± 0.48
  EF (Ejection Fraction): 48.85 ± 9.39
  FS (Fractional Shortening): 24.88 ± 5.88
  LV Mass (AW) (weight of the left ventricular): 124.88 ± 20.30
  LVAW; d (left ventricular anterior wall thickness, end of diastole): 0.75 ± 0.08
  LVAW; s (left ventricular anterior wall thickness, end of systole): 0.98 ± 0.09
  LVPW; d (left ventricular posterior wall thickness, end of diastole): 0.71 ± 0.06
  LVPW; s (left ventricular posterior wall thickness, end of systole): 0.88 ± 0.11
  SV (Stroke Volume): 46.95 ± 6.12
  Volume; d (volume of the left ventricular, end of diastole): 98.37 ± 16.57
  Volume; s (volume of the left ventricular, end of systole): 51.42 ± 15.53
[2]; 4 month of administration
  CO (Cardiac Output): 24.42 ± 1.52
  Diameter; d (inner diameter of the left ventricular, end of diastole): 4.56 ± 0.26
  Diameter; s (inner diameter of the left ventricular, end of systole): 3.38 ± 0.35
  EF (Ejection Fraction): 51.07 ± 6.01
  FS (Fractional Shortening): 26.05 ± 3.64
  LV Mass (AW) (weight of the left ventricular): 131.15 ± 12.93
  LVAW; d (left ventricular anterior wall thickness, end of diastole): 0.81 ± 0.06
  LVAW; s (left ventricular anterior wall thickness, end of systole): 1.17 ± 0.11
  LVPW; d (left ventricular posterior wall thickness, end of diastole): 0.71 ± 0.06
  LVPW; s (left ventricular posterior wall thickness, end of systole): 0.89 ± 0.12
  SV (Stroke Volume): 48.37 ± 3.32
  Volume; d (volume of the left ventricular, end of diastole): 95.93 ± 13.01
  Volume; s (volume of the left ventricular, end of systole): 47.56 ± 11.76
[2]; 5 month of administration
  CO (Cardiac Output): 23.18 ± 3.13
  Diameter; d (inner diameter of the left ventricular, end of diastole): 4.93 ± 0.30
  Diameter; s (inner diameter of the left ventricular, end of systole): 3.86 ± 0.32
  EF (Ejection Fraction): 43.83 ± 3.93
  FS (Fractional Shortening): 21.76 ± 2.21
  LV Mass (AW) (weight of the left ventricular): 150.86 ± 25.12
  LVAW; d (left ventricular anterior wall thickness, end of diastole): 0.82 ± 0.12
  LVAW; s (left ventricular anterior wall thickness, end of systole): 1.13 ± 0.10
  LVPW; d (left ventricular posterior wall thickness, end of diastole): 0.74 ± 0.06
  LVPW; s (left ventricular posterior wall thickness, end of systole): 0.82 ± 0.08
  SV (Stroke Volume): 50.03 ± 5.63
  Volume; d (volume of the left ventricular, end of diastole): 115.02 ± 16.33
  Volume; s (volume of the left ventricular, end of systole): 64.99 ± 12.65
[2]; 6 month of administration
  CO (Cardiac Output): 25.99 ± 2.23
  Diameter; d (inner diameter of the left ventricular, end of diastole): 5.35 ± 0.19
  Diameter; s (inner diameter of the left ventricular, end of systole): 4.38 ± 0.19
  EF (Ejection Fraction): 37.03 ± 3.07
  FS (Fractional Shortening): 18.01 ± 1.71
  LV Mass (AW) (weight of the left ventricular): 180.65 ± 5.80
  LVAW; d (left ventricular anterior wall thickness, end of diastole): 0.74 ± 0.04
  LVAW; s (left ventricular anterior wall thickness, end of systole): 1.09 ± 0.09
  LVPW; d (left ventricular posterior wall thickness, end of diastole): 0.80 ± 0.01
  LVPW; s (left ventricular posterior wall thickness, end of systole): 0.93 ± 0.06
  SV (Stroke Volume): 51.20 ± 5.31
  Volume; d (volume of the left ventricular, end of diastole): 138.41 ± 11.40
  Volume; s (volume of the left ventricular, end of systole): 87.21 ± 8.99
[2]; 7 month of administration
  CO (Cardiac Output): 24.35 ± 4.80
  Diameter; d (inner diameter of the left ventricular, end of diastole): 5.46 ± 0.34
  Diameter; s (inner diameter of the left ventricular, end of systole): 4.60 ± 0.44
  EF (Ejection Fraction): 33.02 ± 6.64
  FS (Fractional Shortening): 15.92 ± 3.53
  LV Mass (AW) (weight of the left ventricular): 190.72 ± 20.29
  LVAW; d (left ventricular anterior wall thickness, end of diastole): 0.79 ± 0.12
  LVAW; s (left ventricular anterior wall thickness, end of systole): 1.08 ± 0.17
  LVPW; d (left ventricular posterior wall thickness, end of diastole): 0.82 ± 0.13
  LVPW; s (left ventricular posterior wall thickness, end of systole): 0.87 ± 0.19
  SV (Stroke Volume): 47.35 ± 6.92
  Volume; d (volume of the left ventricular, end of diastole): 145.92 ± 21.42
  Volume; s (volume of the left ventricular, end of systole): 98.58 ± 22.36
[2]; [3]
  cardiac function: improve the cardiac function
  dilation of cardiac chamber: significantly reduce
